This assay relates to P388 leukemia ip, CD2F1 mice, survival T/C. In words: NCI In Vivo Anticancer Drug Screen. Data for tumor model P388 Leukemia (intraperitoneal) in CD2F1 (CDF1) mice. The note with it: endpoint: median survival time, higher = longer survival. An outline of the steps:
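Mice carrying the transplanted tumor received test compound or vehicle. Survival was recorded in each group, and the value is the treated-group measurement divided by that of the vehicle-treated control group.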

Where [1] appears, read: dose: 50.0 mg/kg/injection, schedule: Q01DX009 (ip), vehicle: saline.
The mark [2] stands for this setting: dose: 100.0 mg/kg/injection, schedule: Q01DX009 (ip), vehicle: saline.
The mark [3] stands for this setting: dose: 50.0 mg/kg/injection, schedule: Q01DX009 (ip), vehicle: saline with Tween-80.
Where [4] appears, read: dose: 100.0 mg/kg/injection, schedule: Q01DX009 (ip), vehicle: saline with Tween-80.
[5] abbreviates: dose: 50.0 mg/kg/injection, schedule: Q01DX005 (ip), vehicle: saline with Tween-80.

Values joined by “and” are separate entries in the source; they are usually repeats but may differ in a detail not shown here. Equal values may be shown once. Inconclusive results and toxic doses are left out.

For `[Na+]`, the T/C under setting [1] is 95 % of control; the T/C under setting [2] is 100 % of control; the T/C (dose: 200.0 mg/kg/injection, schedule: Q01DX009 (ip), vehicle: saline) is 98 % of control; the T/C (dose: 0.5 % in 0.5 ml injection vol, schedule: Q01DX009 (ip), vehicle: water) is 105 % of control and 96 % of control; the T/C (dose: 1.0 % in 0.5 ml injection vol, schedule: Q01DX009 (ip), vehicle: water) is 100 % of control and 96 % of control; the T/C (dose: 2.0 % in 0.5 ml injection vol, schedule: Q01DX009 (ip), vehicle: water) is 102 % of control and 106 % of control. Besides, the T/C is 101 % of control and 92 % of control (dose: 3.12 % in 0.5 ml injection vol, schedule: Q01DX009 (ip), vehicle: water); 100 % of control and 90 % of control (dose: 4.0 % in 0.5 ml injection vol, schedule: Q01DX009 (ip), vehicle: water); 108 % of control and 114 % of control (dose: 6.25 % in 0.5 ml injection vol, schedule: Q01DX009 (ip), vehicle: water); 99 % of control and 104 % of control and 108 % of control (dose: 8.0 % in 0.5 ml injection vol, schedule: Q01DX009 (ip), vehicle: water).
As for `CC(C)(C)OC(=O)NC(CCCCNC(=O)C(F)(F)F)C(=O)O` (stereo not given), the T/C by setting is: (dose: 50.0 mg/kg/injection, schedule: Q01DX009 (ip), vehicle: Klucel (hydroxypropylcellulose) (HPC)) 108 % of control; (dose: 100.0 mg/kg/injection, schedule: Q01DX009 (ip), vehicle: Klucel (hydroxypropylcellulose) (HPC)) 104 % of control; (dose: 200.0 mg/kg/injection, schedule: Q01DX009 (ip), vehicle: Klucel (hydroxypropylcellulose) (HPC)) 102 % of control.
With `O=C1C2=C(Nc3ccccc3N2)OC1c1ccc2c(c1)OCO2` (stereo not given), the T/C (dose: 60.0 mg/kg/injection, schedule: Q01DX005 (ip), vehicle: Klucel (hydroxypropylcellulose) (HPC)) is 100 % of control; the T/C (dose: 120.0 mg/kg/injection, schedule: Q01DX005 (ip), vehicle: Klucel (hydroxypropylcellulose) (HPC)) was 86 % of control; the T/C (dose: 240.0 mg/kg/injection, schedule: Q01DX005 (ip), vehicle: Klucel (hydroxypropylcellulose) (HPC)) was 89 % of control.
For `O=c1n[n+]([O-])ccn1C1OC(CO)C(O)C1O` (stereo not given), the T/C runs as follows: under setting [1], 119 % of control and 123 % of control; under setting [2], 106 % of control; (dose: 300.0 mg/kg/injection, schedule: Q01DX009 (ip), vehicle: saline) 169 % of control and 170 % of control; (dose: 450.0 mg/kg/injection, schedule: Q01DX009 (ip), vehicle: saline) 96 % of control.
For the compound `Cc1csc(Cl)c1NC1=NCCN1`, the T/C is, setting by setting: (dose: 50.0 mg/kg/injection, schedule: Q01DX005 (ip), vehicle: saline) 104 % of control; (dose: 100.0 mg/kg/injection, schedule: Q01DX005 (ip), vehicle: saline) 107 % of control.
In the case of `CC(C)(c1ccccc1)[N+](C)(C)C`, the T/C is, setting by setting: (dose: 5.0 mg/kg/injection, schedule: Q01DX009 (ip), vehicle: saline with Tween-80) 100 % of control; (dose: 10.0 mg/kg/injection, schedule: Q01DX009 (ip), vehicle: saline with Tween-80) 104 % of control; (dose: 10.0 mg/kg/injection, schedule: Q04DX003 (ip), vehicle: saline) 90 % of control; (dose: 20.0 mg/kg/injection, schedule: Q01DX009 (ip), vehicle: saline with Tween-80) 109 % of control; (dose: 20.0 mg/kg/injection, schedule: Q04DX003 (ip), vehicle: saline) 95 % of control.
On to `CC1CCCN(C(=O)Nc2ccc([N+](=O)[O-])cc2)C1` (stereo not given), for which the T/C is 99 % of control under setting [3]; 94 % of control under setting [4]; 92 % of control (dose: 200.0 mg/kg/injection, schedule: Q01DX009 (ip), vehicle: saline with Tween-80).
As to `N/C(=N\N=C\c1cc(Br)cc(Br)c1O)N/N=C/c1cc(Br)cc(Br)c1O`, the T/C was 88 % of control (dose: 12.5 mg/kg/injection, schedule: Q01DX009 (ip), vehicle: distilled water + Tween-80); 93 % of control (dose: 25.0 mg/kg/injection, schedule: Q01DX009 (ip), vehicle: distilled water + Tween-80); 90 % of control (dose: 50.0 mg/kg/injection, schedule: Q01DX009 (ip), vehicle: distilled water + Tween-80); 98 % of control (dose: 200.0 mg/kg/injection, schedule: Q01DX009 (ip), vehicle: distilled water + Tween-80).
As for `Nc1ncnc2c1ccn2C1OC2COP(=O)(O)OC2C1O` (stereo not given), the T/C is, setting by setting: (dose: 0.13 mg/kg/injection, schedule: Q03HX024 (ip), vehicle: saline) 90 % of control; (dose: 0.25 mg/kg/injection, schedule: Q03HX024 (ip), vehicle: saline) 104 % of control; (dose: 0.5 mg/kg/injection, schedule: Q03HX024 (ip), vehicle: saline) 100 % of control; (dose: 1.0 mg/kg/injection, schedule: Q01DX009 (ip), vehicle: saline) 100 % of control; (dose: 1.0 mg/kg/injection, schedule: Q03HX024 (ip), vehicle: saline) 122 % of control; (dose: 1.0 mg/kg/injection, schedule: Q04DX003 (ip), vehicle: saline) 104 % of control. In addition, the T/C runs as follows: (dose: 2.0 mg/kg/injection, schedule: Q01DX001 (ip), vehicle: saline) 100 % of control; (dose: 2.0 mg/kg/injection, schedule: Q01DX009 (ip), vehicle: saline) 104 % of control; (dose: 2.0 mg/kg/injection, schedule: Q04DX003 (ip), vehicle: saline) 100 % of control; (dose: 4.0 mg/kg/injection, schedule: Q01DX001 (ip), vehicle: saline) 100 % of control; (dose: 4.0 mg/kg/injection, schedule: Q04DX003 (ip), vehicle: saline) 104 % of control; (dose: 8.0 mg/kg/injection, schedule: Q01DX001 (ip), vehicle: saline) 109 % of control. Besides, the T/C (dose: 8.0 mg/kg/injection, schedule: Q01DX009 (ip), vehicle: saline) is 95 % of control; the T/C (dose: 8.0 mg/kg/injection, schedule: Q04DX003 (ip), vehicle: saline) was 113 % of control; the T/C (dose: 16.0 mg/kg/injection, schedule: Q01DX001 (ip), vehicle: saline) was 118 % of control.
Regarding `NNC(=O)c1cc2c(cn1)[nH]c1ccccc12`, the T/C is 101 % of control (dose: 12.5 mg/kg/injection, schedule: Q01DX009 (ip), vehicle: other); 98 % of control (dose: 25.0 mg/kg/injection, schedule: Q01DX009 (ip), vehicle: other); 97 % of control (dose: 50.0 mg/kg/injection, schedule: Q01DX009 (ip), vehicle: other); 92 % of control (dose: 100.0 mg/kg/injection, schedule: Q01DX009 (ip), vehicle: other); 101 % of control (dose: 200.0 mg/kg/injection, schedule: Q01DX009 (ip), vehicle: other).
`COc1ccc(N=Nc2c(O)n(-c3ccccc3Cl)c(=S)n(-c3ccc(C)cc3)c2=O)cc1`: the T/C (dose: 100.0 mg/kg/injection, schedule: Q01DX001 (ip), vehicle: Klucel (hydroxypropylcellulose) (HPC)) is 105 % of control; the T/C (dose: 200.0 mg/kg/injection, schedule: Q01DX001 (ip), vehicle: Klucel (hydroxypropylcellulose) (HPC)) was 97 % of control; the T/C (dose: 400.0 mg/kg/injection, schedule: Q01DX001 (ip), vehicle: Klucel (hydroxypropylcellulose) (HPC)) is 102 % of control.
In the case of `Nc1ncc2c(=O)c3c(ccc4ccccc43)oc2n1`, the T/C runs as follows: (dose: 12.5 mg/kg/injection, schedule: Q01DX009 (ip), vehicle: saline with Tween-80) 96 % of control; (dose: 25.0 mg/kg/injection, schedule: Q01DX009 (ip), vehicle: saline with Tween-80) 98 % of control; under setting [3], 90 % of control; under setting [4], 87 % of control.
As for `COC1(OC)CCC(=O)N(Cc2ccccc2)c2cc(C)c(N(Cc3ccccc3)S(=O)(=O)c3ccc(C)cc3)cc2C1C` (stereo not given), the T/C (dose: 12.5 mg/kg/injection, schedule: Q01DX005 (ip), vehicle: saline with Tween-80) is 95 % of control; the T/C (dose: 25.0 mg/kg/injection, schedule: Q01DX005 (ip), vehicle: saline with Tween-80) was 90 % of control; the T/C under setting [5] is 86 % of control and 95 % of control.
With `CCC(CC)C(Nc1nncs1)Nc1nncs1`, the T/C is 90 % of control under setting [5]; 112 % of control (dose: 100.0 mg/kg/injection, schedule: Q01DX005 (ip), vehicle: saline with Tween-80); 116 % of control (dose: 200.0 mg/kg/injection, schedule: Q01DX005 (ip), vehicle: saline with Tween-80).
On to `Cc1ccc2ccc3ccc(CCl)nc3c2n1`, for which the T/C was 95 % of control (dose: 3.12 micromoles/kg, schedule: Q01DX005 (ip), vehicle: other); 99 % of control (dose: 6.25 micromoles/kg, schedule: Q01DX005 (ip), vehicle: other); 102 % of control (dose: 12.5 micromoles/kg, schedule: Q01DX005 (ip), vehicle: other).

For the origin of these results see PubChem BioAssay AID330 (DTP/NCI, 2004).
